Laboratory results reported in US20230092389A1, “UNIT DOSES, AEROSOLS, KITS, AND METHODS FOR TREATING HEART CONDITIONS BY PULMONARY ADMINISTRATION” (InCarda Therapeutics, Inc., priority 2017, published 2023).
Like-named read-outs stand apart in the source and are kept apart here.

What was measured:
[1] = beagle, dog, in vivo
Source text: After induction of AF, animals were first given vehicle (0.9% NaCl, volume-matched) via IT installation.

healthy volunteers = conditions: human, in vivo
Source text: 3 cohorts of subjects, in total 34 healthy adult volunteers, were recruited for Part A study.
Part B was an open label non-randomized crossover in a cohort of 6 evaluable healthy adult volunteers.
Adverse events were monitored and recorded.

O=C(NCC1CCCCN1)c1cc(OCC(F)(F)F)ccc1OCC(F)(F)F (stereo not drawn) [flecainide]
Plasma Concentration LV at time of conversion, Mean ± SEM [1]: 1139 ± 380 ng/mL
Plasma Concentration Venous at time of conversion, Mean ± SEM [1]: 611 ± 213 ng/mL
plasma concentrations transiently higher in LV than in PA (summary) [1]: ~2.5 fold
plasma levels higher in LV than in systemic venous circulation [1]: ~2 fold
plasma concentrations transiently higher in PA than in LV (summary) ([1]; iv): ~3.5 fold
time after administration when LV and PA concentrations were nearly equal ([1]; iv): 4 to 10 min
Adverse Event: Cough (healthy volunteers; both): 1
Adverse Event: Lightheadedness (healthy volunteers; both): 1
Number of Moderate or Severe TEAEs (healthy volunteers; both): 3
Number of Study Drug Related TEAEs (healthy volunteers; both): 43
Number of Study Drug Related, Moderate or Severe TEAEs (healthy volunteers; both): 2
Number of TEAEs (healthy volunteers; both): 59
Subjects with at least one Moderate or Severe TEAE (healthy volunteers; both): 2 (8) n (%)
Subjects with at least one Study Drug Related TEAE (healthy volunteers; both): 22 (80) n (%)
Subjects with at least one Study Drug Related, Moderate or Severe TEAE (healthy volunteers; both): 1 (4) n (%)
Subjects with at least one TEAE (healthy volunteers; both): 22 (88) n (%)
TEAE: Catheter site pain (healthy volunteers; both): 2 (8) [2] n (%) [events]
TEAE: Cough (healthy volunteers; both): 3 (12) [4] n (%) [events]
TEAE: Diarrhoea (healthy volunteers; both): 2 (8) [2] n (%) [events]
TEAE: Dizziness (healthy volunteers; both): 3 (12) [3] n (%) [events]
TEAE: Dry mouth (healthy volunteers; both): 3 (12) [3] n (%) [events]
TEAE: Dysgeusia (healthy volunteers; both): 2 (8) [2] n (%) [events]
TEAE: Dyspnoea (healthy volunteers; both): 6 (24) [6] n (%) [events]
TEAE: Gastrointestinal disorders (healthy volunteers; both): 8 (32) [11] n (%) [events]
TEAE: General disorders and administration site conditions (healthy volunteers; both): 3 (12) [4] n (%) [events]
TEAE: Headache (healthy volunteers; both): 4 (16) [5] n (%) [events]
TEAE: Nervous system disorders (healthy volunteers; both): 8 (32) [11] n (%) [events]
TEAE: Oropharyngeal discomfort (healthy volunteers; both): 11 (44) [11] n (%) [events]
TEAE: Respiratory, thoracic and mediastinal disorders (healthy volunteers; both): 17 (68) [25] n (%) [events]
duration of the majority of adverse events (healthy volunteers; both): 15 to 90 min
subjects with study-drug related Cough (healthy volunteers; both): 12%
subjects with study-drug related Dizziness (healthy volunteers; both): 12%
subjects with study-drug related Dry mouth (healthy volunteers; both): 12%
subjects with study-drug related Dysgeusia (healthy volunteers; both): 8%
subjects with study-drug related Dyspnoea (shortness of breath) (healthy volunteers; both): 16%
subjects with study-drug related Headache (healthy volunteers; both): 8%
subjects with study-drug related Oropharyngeal discomfort (healthy volunteers; both): 40%
average events per subject (healthy volunteers): 2
probably study-drug related oropharyngeal discomfort (events) (healthy volunteers): 4
study-drug related paresthesia oral (events) (healthy volunteers): 3
TEAE: Hypoaesthesia oral (healthy volunteers; 2 mg/kg): 1 (14) [1] n (%) [events]
TEAE: Paraesthesia oral (healthy volunteers; 2 mg/kg): 3 (43) [3] n (%) [events]
average events per subject (healthy volunteers; iv): 7
severe and moderate AEs probably related to study drug (healthy volunteers; iv): 1 severe and 2 moderate intensity AEs
study-drug related application site coldness (occurrences) (healthy volunteers; iv): 2
study-drug related dizziness (events) (healthy volunteers; iv): 6
study-drug related headache (events) (healthy volunteers; iv): 5
study-drug related peripheral coldness, palpitations, and chest discomfort, occurrences each (healthy volunteers; iv): 2
systolic BP in subject whose IV infusion was interrupted for hypotension (healthy volunteers; iv): < 65 mmHg
Number of Moderate or Severe TEAEs (healthy volunteers; iv, 2 mg/kg): 4
Number of Related TEAEs (healthy volunteers; iv, 2 mg/kg): 35
Number of Related, Moderate or Severe TEAEs (healthy volunteers; iv, 2 mg/kg): 4
Number of SAEs (healthy volunteers; iv, 2 mg/kg): 0
Number of Subjects with at least one Moderate or Severe TEAE (healthy volunteers; iv, 2 mg/kg): 2 (29) n (%)
Number of Subjects with at least one Related TEAE (healthy volunteers; iv, 2 mg/kg): 7 (100) n (%)
Number of Subjects with at least one Related, Moderate or Severe TEAE (healthy volunteers; iv, 2 mg/kg): 2 (29) n (%)
Number of Subjects with at least one SAE (healthy volunteers; iv, 2 mg/kg): 0 n (%)
Number of Subjects with at least one TEAE (healthy volunteers; iv, 2 mg/kg): 7 (100) n (%)
Number of Treatment-Emergent Adverse Events (healthy volunteers; iv, 2 mg/kg): 49
TEAE: Application site coldness (healthy volunteers; iv, 2 mg/kg): 2 (29) [2] n (%) [events]
TEAE: Catheter site pain (healthy volunteers; iv, 2 mg/kg): 2 (29) [2] n (%) [events]
TEAE: Chest discomfort (healthy volunteers; iv, 2 mg/kg): 1 (14) [3] n (%) [events]
TEAE: Dizziness (healthy volunteers; iv, 2 mg/kg): 6 (86) [6] n (%) [events]
TEAE: Fatigue (healthy volunteers; iv, 2 mg/kg): 2 (29) [2] n (%) [events]
TEAE: Gastrointestinal disorders (healthy volunteers; iv, 2 mg/kg): 5 (71) [6] n (%) [events]
TEAE: General disorders and administration site conditions (healthy volunteers; iv, 2 mg/kg): 4 (57) [13] n (%) [events]
TEAE: Headache (healthy volunteers; iv, 2 mg/kg): 5 (71) [6] n (%) [events]
TEAE: Nervous system disorders (healthy volunteers; iv, 2 mg/kg): 7 (100) [13] n (%) [events]
TEAE: Peripheral coldness (healthy volunteers; iv, 2 mg/kg): 2 (29) [3] n (%) [events]
TEAE: Respiratory, thoracic and mediastinal disorders (healthy volunteers; iv, 2 mg/kg): 2 (29) [3] n (%) [events]
TEAE: Vascular disorders (healthy volunteers; iv, 2 mg/kg): 3 (43) [4] n (%) [events]
fewer TEAEs with IH than IV (healthy volunteers; iv, 2 mg/kg): 4 fold
